Earlier results in US20110091549A1, “Modulating Drug Release Rate By Controlling The Kinetics Of The pH Transition In Hydrogels” (Confluent Surgical, Inc., priority 2009, published 2011).
Like-named read-outs stand apart in the source and are kept apart here.

Legend:
[1] = free base form compared with the salt form
[2] = drugs having a pKa of from about 7.4 to about 8.5

CN1CCN(C(c2ccccc2)c2ccc(Cl)cc2)CC1 (stereo not drawn) [Chlorcyclizine]
pKa [2]: 7.8

O=c1[nH]c(=O)n([C@H]2C[C@H](O)[C@@H](CO)O2)cc1Br [Broxuridine]
pKa [2]: 7.85

CCCN(CC)C(CC)C(=O)Nc1c(C)cccc1C (stereo not drawn) [Etidocaine]
pKa [2]: 7.7

CCCCN1CCCCC1C(=O)Nc1c(C)cccc1C (stereo not drawn) [Bupivacaine, bupivacaine]
aqueous solubility [1]: lower aqueous solubility | pKa (transition of the salt form into free base form): about 8.1

COc1cccc2c1C(=O)c1c(O)c3c(c(O)c1C2=O)C[C@@](O)(C(=O)CO)C[C@@H]3O[C@H]1C[C@H](N)[C@H](O)[C@H](C)O1 [Doxorubicin]
pKa: 8.2
